What is called IC50 is the concentration that gives 50% inhibition. A high value points to weaker potency.

These results are taken from ChEMBL document CHEMBL1139040, “4-Methylideneisoxazolidin-5-ones--a new class of alpha-methylidene-gamma-lactones with high cytostatic activity” (Bioorg Med Chem Lett, 2006).

Assay type in all cases: functional, cell-based
In one assay the test system is NALM-6. The assay is described as follows: Antiproliferative activity against human NALM6 leukemia cell line.
For a further assay, the system named is L1210. The assay can be described thus: Antiproliferative activity against mouse L1210 leukemia cell line.
In another assay the test system is HL-60. The assay is described as follows: Antiproliferative activity against human HL60 leukemia cell line.

In the case of `C=C1C(=O)ON(C)C1c1cccc2ccccc12` (configuration not stated), the IC50 with NALM-6 came out at 4.2 µM; in the assay with L1210, 3200 nM; in the assay on HL-60, 5.6 µM.
The like results for `C=C1C(=O)ON(C)C1c1ccc(C)cc1` (configuration not stated) were, in that order, 5.8 µM, 800 nM and 5.4 µM.
For `C=C1C(=O)ON(C)C1c1ccc(OC)cc1` (configuration not stated), the IC50 stood at 5.5 µM in the assay on NALM-6, 3500 nM with L1210 and 5.4 µM with HL-60.
Turning to `C=C1C(=O)ON(C)C1c1ccc([N+](=O)[O-])cc1` (configuration not stated), the IC50 with NALM-6 stood at 5.2 µM; in the assay on L1210, 800 nM; in the assay on HL-60 it was 7.4 µM.
`C=C1C(=O)ON(C)C1c1ccccc1` (configuration not stated): the figures for the IC50 in the assay with NALM-6, with L1210 and in the assay on HL-60 were 4.96 µM, 5500 nM and 34.8 µM, respectively.
The like results for `C=C1C(=O)ON(C)C1C(C)CCC` (configuration not stated) were, in that order, 0.34 µM, 1900 nM and 4.7 µM.
In the case of `C=C1C(=O)ON(C)C1c1ccc2c(c1)OCO2` (configuration not stated), the IC50 is 4.2 µM in the assay with NALM-6, 7000 nM in the assay on L1210 and 6.6 µM in the assay with HL-60.
Consider `C=C1C(=O)ON(C)C1C(C)C` (configuration not stated), for which the IC50 with NALM-6 worked out at 4.16 µM; with L1210, 2630 nM; with HL-60 it was 0.74 µM.
In the case of `C=C1C(=O)ON(C)C1c1ccc(Br)cc1` (configuration not stated), the IC50 in the assay on NALM-6 turned out to be 4.6 µM; with L1210, 700 nM; with HL-60, 5.1 µM.
